Structures are written as SMILES.

21 molecules from US11505558B1, “Antiviral heterocyclic compounds” (Enanta Pharmaceuticals, Inc., priority 2019, dated 2022) can be followed below.

In the test the test system is genotype A, "Long" strain RSV. In words: RSV-A assay (CPE, ATPlite readout in Hep-2 cells). It counts as cell-based. The conditions noted are these: human respiratory syncytial virus, HEp-2, Hep-2 cells, genotype A "Long" strain RSV, MOI 0.1; read-out: Human RSV-A (“Long” strain) EC50. In outline: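 Hep-2 cells (8,000/well) received 2-fold serial compound dilutions in duplicate and RSV Long strain at MOI 0.1. After 5 days' incubation, cell health was read as ATP by ATPlite luminescence, with virus-only and uninfected controls defining max and minimum CPE; EC50 reported.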
Background: In ATP-based viability assays light output follows the ATP content of the culture.
The EC50 is the concentration giving half of the maximal effect. For the molecule `CN1Cc2cc(C(=O)NC[C@](O)(c3cc4c(c(-c5ccc(F)cc5)n3)OC[C@]4(C)C(=O)NCC(C)(C)O)C(F)(F)F)ccc2C1=O` [Example 643], the EC50 was below 200 nM.

Consider `CN1Cc2cc(C(=O)NC[C@](O)(c3cc4c(c(-c5ccc(F)cc5)n3)OC[C@]4(C)C(N)=O)C(F)(F)F)ccc2C1=O` [Example 644], for which the EC50 is below 200 nM.

`CN1Cc2cc(C(=O)NC[C@](O)(c3cc4c(c(-c5ccc(F)c(Cl)c5)n3)OC[C@]4(C)C(N)=O)C3CC3)ccc2C1=O` [Example 645]: the concentration giving a half-maximal response (EC50) was below 200 nM.

For `CN1Cc2cc(C(=O)NC[C@](O)(c3cc4c(c(-c5ccc(F)c(Cl)c5)n3)OC[C@]4(C)C(N)=O)C(F)(F)F)ccc2C1=O` [Example 646], the EC50 was below 200 nM.

For `COc1cc(C(=O)NC[C@](O)(c2cc3c(c(-c4ccc(F)cc4)n2)OC[C@]3(C)C(N)=O)C(F)(F)F)ccc1OCC(C)(C)O` [Example 647], the EC50 is below 200 nM.

Consider `Cc1cnc2c(S(C)(=O)=O)cc(C(=O)NC[C@](O)(c3cc4c(c(-c5ccc(F)cc5)n3)OC[C@]4(C)C(N)=O)C(F)(F)F)cc2c1` [Example 648], for which the EC50 was below 200 nM.

Turning to `COc1cc(C(=O)NC[C@](O)(c2cc3c(c(-c4ccc(F)cc4)n2)OC[C@]3(C)C(N)=O)C(F)(F)F)cc2cc(S(C)(=O)=O)cnc12` [Example 649], the EC50 was above 200 nM.

Regarding `COc1cc(C(=O)NC[C@](O)(c2cc3c(c(-c4ccc(F)cc4)n2)NC[C@]3(C)CO)C(F)(F)F)ccc1OCCO` [Example 650], the EC50 is below 200 nM.

Consider `C[C@]1(C(N)=O)COc2c1cc([C@@](O)(CNC(=O)c1ccc3ncc(C(F)(F)F)cc3c1)C(F)(F)F)nc2-c1ccc(F)cc1` [Example 651], for which the EC50 was below 200 nM.

`Cc1ccc2cc(C(=O)NC[C@](O)(c3cc4c(c(-c5ccc(F)cc5)n3)OC[C@]4(C)C(N)=O)C(F)(F)F)cc(N3CCCC3=O)c2n1` [Example 652]: the EC50 is above 200 nM.

For the molecule `Cc1ccc2cc(C(=O)NC[C@](O)(c3cc4c(c(-c5ccc(F)c(Cl)c5)n3)OC[C@]4(C)C(N)=O)C(F)(F)F)cc(N3CCCC3=O)c2n1` [Example 653], the 50% effective concentration (EC50) was above 200 nM.

For `Cn1cc2cc(C(=O)NC[C@](O)(c3cc4c(c(-c5ccc(F)cc5)n3)OC[C@]4(C)C(N)=O)C(F)(F)F)cc(F)c2n1` [Example 654], the EC50 is below 200 nM.

For `CCn1cc2cc(C(=O)NC[C@](O)(c3cc4c(c(-c5ccc(F)cc5)n3)OC[C@]4(C)C(N)=O)C(F)(F)F)ccc2n1` [Example 655], the EC50 is below 200 nM.

Consider `Cc1n[nH]c2ccc(C(=O)NC[C@](O)(c3cc4c(c(-c5ccc(F)cc5)n3)OC[C@]4(C)C(N)=O)C(F)(F)F)cc12` [Example 658], for which the EC50 is below 200 nM.

For `Cc1cnc2c(N3CCNC3=O)cc(C(=O)NC[C@](O)(c3cc4c(c(-c5ccc(F)cc5)n3)OC[C@]4(C)C(N)=O)C(F)(F)F)cc2c1` [Example 659], the EC50 is below 200 nM.

Consider `Cc1cc2cc(C(=O)NC[C@](O)(c3cc4c(c(-c5ccc(F)cc5)n3)OC[C@]4(C)C(N)=O)C(F)(F)F)cc(NC(=O)NC3COC3)c2nc1C` [Example 660], for which the EC50 was below 200 nM.

Turning to `Cc1cc2cc(C(=O)NC[C@](O)(c3cc4c(c(-c5ccc(F)cc5)n3)OC[C@]4(C)C(N)=O)C(F)(F)F)cc(NC(=O)NCC(C)(C)O)c2nc1C` [Example 661], the EC50 was below 200 nM.

Turning to `Cc1cc2cc(C(=O)NC[C@](O)(c3cc4c(c(-c5ccc(F)cc5)n3)OC[C@]4(C)C(N)=O)C(F)(F)F)cc(NC(=O)C3(F)CC3)c2nc1C` [Example 662], the EC50 was below 200 nM.

As to `NC(=O)C1(F)COc2c1cc([C@@](O)(CNC(=O)c1cc(OC3CC3)c3ncccc3c1)C(F)(F)F)nc2-c1ccc(F)cc1` (stereo partly drawn) [Example 665], the EC50 was above 200 nM.

Consider `COc1cc(C(=O)NC[C@](O)(c2cc3c(c(-c4ccc(F)cc4)n2)OC[C@]3(F)C(N)=O)C(F)(F)F)ccc1OC1CC1` [Example 666], for which the EC50 was below 200 nM.

With `COc1cc(C(=O)NC[C@](O)(c2cc3c(c(-c4ccc(F)cc4)n2)OC[C@@]3(F)C(N)=O)C(F)(F)F)ccc1OC1CC1` [Example 667], the concentration for a half-maximal effect (EC50) was above 200 nM.
